pKd: −log10 of the molar value.
What was measured:
mHTT = molecular target: T1, mHTT (Homo sapiens, UniProt P42858); assay: mHTT levels in striatal cells (immunocytochemistry); assay type: cell-based, mouse; details: for remaining activity at 10 µM / Nuclear mHTT after treatment / mHTT after treatment: 3 hours heat shock, 48 hours treatment; for remaining activity at 10 µM / mHTT after treatment: percentage in comparison to untreated STHdh 111/111, 3B5H10 antibody, 10 µM; for remaining activity at 10 µM: read-out: mHTT after treatment
T1 construct: host or cells: ST HDH Q111/111 mouse striatal cell line (knock-in locus)
T1 sequence (P42858 with tags, fused parts or gaps with the stated changes): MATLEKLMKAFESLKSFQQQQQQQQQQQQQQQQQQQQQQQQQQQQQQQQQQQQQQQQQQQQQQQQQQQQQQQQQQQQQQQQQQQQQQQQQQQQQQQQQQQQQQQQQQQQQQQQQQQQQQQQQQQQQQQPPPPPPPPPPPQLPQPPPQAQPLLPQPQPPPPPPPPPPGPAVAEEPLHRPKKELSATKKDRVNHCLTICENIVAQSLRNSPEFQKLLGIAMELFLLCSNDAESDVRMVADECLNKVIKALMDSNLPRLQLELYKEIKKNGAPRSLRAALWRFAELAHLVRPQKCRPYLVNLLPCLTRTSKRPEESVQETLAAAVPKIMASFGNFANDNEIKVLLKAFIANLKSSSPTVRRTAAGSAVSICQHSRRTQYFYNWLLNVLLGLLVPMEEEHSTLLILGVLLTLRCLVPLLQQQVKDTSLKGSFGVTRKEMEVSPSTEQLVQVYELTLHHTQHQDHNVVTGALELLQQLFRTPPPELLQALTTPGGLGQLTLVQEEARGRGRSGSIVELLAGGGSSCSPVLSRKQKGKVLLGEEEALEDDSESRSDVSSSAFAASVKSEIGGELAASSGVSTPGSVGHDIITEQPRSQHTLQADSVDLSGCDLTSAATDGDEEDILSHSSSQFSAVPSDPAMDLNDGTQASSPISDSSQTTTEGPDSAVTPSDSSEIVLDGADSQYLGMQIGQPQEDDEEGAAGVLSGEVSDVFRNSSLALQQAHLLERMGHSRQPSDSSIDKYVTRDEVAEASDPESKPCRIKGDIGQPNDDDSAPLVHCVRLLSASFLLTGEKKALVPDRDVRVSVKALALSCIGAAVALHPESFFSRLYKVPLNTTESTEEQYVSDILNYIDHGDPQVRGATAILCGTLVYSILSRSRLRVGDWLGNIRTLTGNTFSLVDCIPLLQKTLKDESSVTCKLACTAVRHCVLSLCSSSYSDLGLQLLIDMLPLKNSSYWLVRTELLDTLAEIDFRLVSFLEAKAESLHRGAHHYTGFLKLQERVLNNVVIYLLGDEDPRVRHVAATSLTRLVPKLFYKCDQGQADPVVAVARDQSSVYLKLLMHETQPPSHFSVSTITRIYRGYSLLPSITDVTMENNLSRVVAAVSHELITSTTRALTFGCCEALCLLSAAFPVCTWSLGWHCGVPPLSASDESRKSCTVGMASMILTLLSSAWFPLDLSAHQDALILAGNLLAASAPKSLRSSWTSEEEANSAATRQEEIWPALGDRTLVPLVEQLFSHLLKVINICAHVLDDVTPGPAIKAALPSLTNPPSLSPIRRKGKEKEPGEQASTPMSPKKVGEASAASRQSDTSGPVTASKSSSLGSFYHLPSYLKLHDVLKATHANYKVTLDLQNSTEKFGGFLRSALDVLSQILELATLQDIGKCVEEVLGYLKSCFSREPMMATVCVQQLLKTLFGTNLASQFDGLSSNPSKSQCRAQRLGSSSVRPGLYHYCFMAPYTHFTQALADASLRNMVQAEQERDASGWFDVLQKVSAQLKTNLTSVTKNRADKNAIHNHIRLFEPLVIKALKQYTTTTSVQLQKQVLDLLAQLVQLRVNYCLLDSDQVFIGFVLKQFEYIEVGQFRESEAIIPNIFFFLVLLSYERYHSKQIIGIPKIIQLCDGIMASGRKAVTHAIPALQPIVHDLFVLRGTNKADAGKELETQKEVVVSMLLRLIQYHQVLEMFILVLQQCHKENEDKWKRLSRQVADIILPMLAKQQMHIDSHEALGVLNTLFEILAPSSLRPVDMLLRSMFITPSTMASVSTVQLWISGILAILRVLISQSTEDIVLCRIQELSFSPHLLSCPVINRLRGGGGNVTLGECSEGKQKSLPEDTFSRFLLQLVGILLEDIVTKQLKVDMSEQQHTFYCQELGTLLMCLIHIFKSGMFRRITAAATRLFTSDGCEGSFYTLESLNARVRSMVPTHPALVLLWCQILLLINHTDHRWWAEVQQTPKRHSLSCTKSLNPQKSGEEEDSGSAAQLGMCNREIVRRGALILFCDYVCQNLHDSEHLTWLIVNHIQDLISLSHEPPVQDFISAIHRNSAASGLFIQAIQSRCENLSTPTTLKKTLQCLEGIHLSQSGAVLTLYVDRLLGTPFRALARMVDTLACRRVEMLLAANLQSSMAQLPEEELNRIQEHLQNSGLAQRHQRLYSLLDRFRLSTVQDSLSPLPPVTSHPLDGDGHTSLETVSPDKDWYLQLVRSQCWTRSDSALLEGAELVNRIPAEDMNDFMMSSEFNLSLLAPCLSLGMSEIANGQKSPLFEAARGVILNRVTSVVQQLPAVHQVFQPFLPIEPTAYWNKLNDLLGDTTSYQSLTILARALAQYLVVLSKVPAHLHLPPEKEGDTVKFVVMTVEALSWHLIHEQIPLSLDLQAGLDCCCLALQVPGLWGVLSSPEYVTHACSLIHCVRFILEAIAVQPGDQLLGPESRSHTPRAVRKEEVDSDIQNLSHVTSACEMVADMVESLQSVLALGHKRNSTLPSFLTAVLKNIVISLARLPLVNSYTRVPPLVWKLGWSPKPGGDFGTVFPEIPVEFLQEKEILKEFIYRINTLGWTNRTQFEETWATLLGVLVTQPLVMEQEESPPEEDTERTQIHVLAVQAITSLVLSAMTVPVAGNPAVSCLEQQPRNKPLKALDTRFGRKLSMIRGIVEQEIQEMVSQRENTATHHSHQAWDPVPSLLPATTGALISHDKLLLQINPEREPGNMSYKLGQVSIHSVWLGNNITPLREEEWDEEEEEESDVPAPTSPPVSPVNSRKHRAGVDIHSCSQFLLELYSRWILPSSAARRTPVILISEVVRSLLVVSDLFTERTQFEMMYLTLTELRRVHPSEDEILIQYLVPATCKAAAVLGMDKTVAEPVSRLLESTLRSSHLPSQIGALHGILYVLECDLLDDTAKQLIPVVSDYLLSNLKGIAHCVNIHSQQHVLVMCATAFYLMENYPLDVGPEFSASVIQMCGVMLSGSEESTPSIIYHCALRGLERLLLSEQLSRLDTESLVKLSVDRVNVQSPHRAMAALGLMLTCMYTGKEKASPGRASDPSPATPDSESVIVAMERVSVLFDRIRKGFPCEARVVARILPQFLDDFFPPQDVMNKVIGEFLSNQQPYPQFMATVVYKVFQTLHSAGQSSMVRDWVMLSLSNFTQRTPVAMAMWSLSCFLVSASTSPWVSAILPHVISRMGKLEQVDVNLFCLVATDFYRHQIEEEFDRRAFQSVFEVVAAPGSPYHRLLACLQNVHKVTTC
Description: (§1) Staining - Cells were permeabilized with 0.3% Triton X-100 in 4 °C PBS (pH 7.4 from ThermoFisher) for 10 minutes. Then the cells were washed two times with 4 °C PBS. Subsequently, cells are blocked with 3% NGS (normal goat serum from Thermo Fisher) in 4 ° C PBS for 1 hour. Cells were incubated with primary antibodies in blocking buffer (PBS, 3% NGS, 0.02% NaN3) over night at 4 °C. Primary antibodies were mouse antipolyglutamine monoclonal antibody 3B5H10 (Sigma-Aldrich) at 1:250 dilution and Guinea Pig anti-MAP2 polyclonal antibody (Synaptic Systems) at 1:500 dilution. 3B5H10 binds to diffuse mHTT. Diffuse mHTT is a monomeric and small oligomeric mHTT. Diffuse mHTT is correlated to pathological parameters in Huntington's disease. Compounds that bind the mHTT will reduce the levels of diffuse mHTT detected.
Cells were washed 2 times with 4 °C PBS, and then incubated with secondary antibodies at 1:2000 dilution in blocking buffer for 1hour at room temperature. […] Cells were washed 2 times with 4 °C PBS, and then the nuclei were counterstain with DAPI (ThermoFisher) for 10 min at room temperature in the dark. Cells were washed 2 times with 4 °C PBS, and then 4 °C PBS was added to cells and then images were acquired. […] Table 11: Antibodies Used in Immunocytochemistry Studies
Fluorescence Imaging - Imaging sessions were performed on a confocal microscope system (Carl Zeiss Microscopy) equipped with a dual spinning disk unit (Yokogawa). All components of the imaging system were controlled via the ZEN 2 software suite (Carl Zeiss Microscopy). The laser lines used were 405 nm, 488 nm and 639 nm to excite DAPI or the respective fluorophores. […] Nested t test was performed to calculate the significance amongst repeated measurements using GraphPad Prism software.
as §1, with “For LC3 staining primary antibodies were mouse anti-LC3 mab (5F10) (nanoTools) at 1:500 dilution” for “3B5H10 binds to diffuse mHTT. Diffuse mHTT is a monomeric”, “Guinea Pig anti-MAP2 polyclonal antibody (Synaptic Systems) at 1:500 dilution.” for “small oligomeric mHTT. Diffuse mHTT is correlated to pathological parameters in Huntington's disease. Compounds that bind the mHTT will reduce the levels of diffuse mHTT detected.”
Cells were washed 2 times with 4 °C PBS, and then incubated with secondary antibodies at 1:2000 dilution in blocking buffer for 1hour at room temperature. […] Cells were washed 2 times with 4 °C PBS, and then the nuclei were counterstain with DAPI (ThermoFisher) for 10 min at room temperature in the dark. Cells were washed 2 times with 4 °C PBS, and then 4 °C PBS was added to cells and then images were acquired.
EC 50 value was determined with non-linear regression.

Exon1 Q46 = Exon1 Q46 (Homo sapiens, UniProt P42858, INS38QQQQQQQQQQQQQQQQQQQQQQQQQ); assay: Circular dichroism study; assay type: binding; details: Exon1 Q46
Sequence of Exon1 Q46 (P42858 with tags, fused parts or gaps with the stated changes): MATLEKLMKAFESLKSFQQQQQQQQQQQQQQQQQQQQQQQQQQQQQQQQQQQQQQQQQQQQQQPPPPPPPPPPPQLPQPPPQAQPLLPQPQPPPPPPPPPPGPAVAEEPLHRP
Description: Protein samples were diluted with buffer to 7.5 µM prior to Circular Dichroism (CD) measurements. Measurements were conducted at room temperature.
Four spectra at each measurement were taken every 1 nm from 200 to 260 nm, scanning at 50 nm/min with an averaging time of 1 sec. Spectra were obtained from samples in 20 mM phosphate, pH 7.4. Ten scans were averaged for each sample spectrum
Single-wavelength readings at 222 nm were obtained. After subtraction of the Trx contribution, the α-helical content of Httex1 was estimated from its mean residue ellipticity (MREHttex1) at 222 nm. This calculation was conducted as described by Bravo-Arredondo (Bravo-Arredondo, J.M. et al., J Biol Chem. 2018 Dec 21;293(51):19613-19623).
MRE Exon-1 Q16 and Q46 (Mean Residue Ellipticity) was measured every 1 sec for 300 sec; the 301 readings for each sample were averaged and MRE Trx subtracted. The number of amino acids in each sample to experience a change in helicity was estimated using a previously developed helix-coil transition model, which gave the change in fraction of helicity (ΔfHelix) by the following equation: fHelix = (MREHttex1 −MRECoil)/(MREHelix −MRECoil) [formula] where MRE Exon1 Q26 or Q46 (MREHttex1 in the formula) describes the helix-coil transition, obtained from the difference between MRE Eon1 Q26 or Q46 at 222 nm of the fusion protein at the given temperature (in our case 37 °C) and the product of MRE Trx at 222 nm at the same temperature and the fraction of residues comprised by Trx in that particular construct, and MRECoil = 2220−53T,MREHelix =; (−44,000+250T)(1−(3)/(Nr)) [formula] given T as the temperature in °C and Nr as the number of residues.
In order to calculate an equilibrium of the two states model, percent α-helicity was calculated using the relation of MREHttex1 = 0 and -34700 (deg cm^2 dmol^-1) for 0% and 100% helicity, respectively. Table 14: Comparison between Kd, reversal of conformational changes of Exon1 Q46 and reduction of mHTT in comparison to untreated striatal neurons
The CD measurements protocol for Compound 101 was the same as outlined above except that from 206 nm - 210 nm and 220 nm - 224 nm, the step size was 0.2 nm, and the bandwidth was 1nm.

SMILES | remaining activity at 10 µM (mHTT; STHdh 111/111) [%] | other results
O=C(NCCN1CCOCC1)c1ccc2[nH]c3c(c2c1)CCCC3 [Compound 12] | 40 | 
CN(C)CCNC(=O)c1ccc2[nH]c3c(c2c1)CCCC3 [Compound 3] | 33 | 
Cc1[nH]c2ccc(S(=O)(=O)NCCN3CCCCC3)cc2c1C [Compound 128] |  | Nuclear mHTT after treatment (mHTT; STHdh 111/111): 79.9%
CN(C)CCNC(=O)c1ccc2[nH]c3c(c2c1)CCC3 [Compound 5] | 36 | 
Cc1[nH]c2ccc(C(=O)NCCN3CCOCC3)cc2c1C [Compound 2, 2,3-dimethyl-N-(2-morpholinoethyl)-1H-indole-5-carboxamide] | 32 | 
Cc1c(C)n(C)c2ccc(C(=O)NCCN(C)C)cc12 [Compound 41, N-(2-(Dimethylamino)ethyl)-1,2,3-trimethyl-1H-indole-5-carboxamide] | 65 | 
Cc1c(C)n(C)c2ccc(C(=O)NCCN3CCC3)cc12 [Compound 44, N-(2-(Azetidin-1-yl)ethyl)-1,2,3-dimethyl-1H-indole-5-carboxamide] |  | mHTT after treatment (mHTT; STHdh 111/111): 66%
Cc1c(C)n(C)c2ccc(C(=O)NCCN3CCN(C)C(C)C3)cc12 (centres unmarked) [Compound 25, N-(2-(3,4-Dimethylpiperazin-1-yl)ethyl)-1,2,3-trimethyl-1H-indole-5-carboxamide] | 48 | 
CCc1c(C)[nH]c2ccc(C(=O)NCCN(C)C)cc12 [Compound 1] | 30 | 
CCN(CC)CCNC(=O)c1ccc2c(c1)c(C)c(C)n2C [Compound 19, N-(2-(Diethylamino)ethyl)-1,2,3-dimethyl-1H-indole-5-carboxamide] |  | mHTT after treatment (mHTT; STHdh 111/111): 45%
Cc1[nH]c2ccc(C(=O)NCCN3CCC3)cc2c1C [Compound 17, N-(2-(Azetidin-1-yl)ethyl)-2,3-dimethyl-1H-indole-5-carboxamide] | 44 | 
Cc1c(C)n(C)c2ccc(C(=O)NCCN3CCCCC3)cc12 [Compound 31, 1,2,3-Trimethyl-N-(2-(piperidin-1-yl)ethyl)-1H-indole-5-carboxamide] | 52 | 
Cc1c(C)n(C)c2ccc(C(=O)NCCN3CCCC3)cc12 [Compound 46, 1,2,3-Trimethyl-N-(2-(pyrrolidin-1-yl)ethyl)-1H-indole-5-carboxamide] | 66 | 
CCN(CC)CCNC(=O)c1ccc2[nH]c(C)c(C)c2c1 [Compound 21, N-(2-(Diethylamino)ethyl)-2,3-dimethyl-1H-indole-5-carboxamide] | 46 | 
CCN(CC)CCNC(=O)c1ccc2[nH]c3c(c2c1)CCC3 [Compound 27] | 50 | 
Cc1[nH]c2ccc(S(=O)(=O)NCCN3CCOCC3)cc2c1C [Compound 127] |  | Nuclear mHTT after treatment (mHTT; STHdh 111/111): 23.9%
Cc1[nH]c2ccc(C(=O)NCCN3CCCCC3)cc2c1C [Compound 47, 2,3-Dimethyl-N-(2-(piperidin-1-yl)ethyl)-1H-indole-5-carboxamide] | 66 | 
Cc1c(C)n(C)c2ccc(C(=O)NCCN3CCCCC3C)cc12 (centres unmarked) [Compound 48] | 68 | 
Cc1[nH]c2ccc(C(=O)NC3CCC(N(C)C)CC3)cc2c1C (centres unmarked) [Compound 101, N-(4-(dimethylamino)cyclohexyl)-2,3-dimethyl-1H-indole-5-carboxamide] | 38 | mHTT after 3 h heat shock and following 48 hours of compound treatment in comparison to untreated STHdh 111/111 (mHTT; STHdh 111/111): 38%; pKd (Exon1 Q46): 7.15; Fraction Helix fH (Exon1 Q46; conc. Compound 0.01 µM): 20.5%; Fraction Helix fH (Exon1 Q46; conc. Compound 0.059 µM): 20.1%; Fraction Helix fH (Exon1 Q46; conc. Compound 0.158 µM): 19.9%; Fraction Helix fH (Exon1 Q46; conc. Compound 0.647 µM): 19.1%; Fraction Helix fH (Exon1 Q46; conc. Compound 1.62 µM): 19.0%; Fraction Helix fH (Exon1 Q46; conc. Compound 4.04 µM): 18.5%; Fraction Helix fH (Exon1 Q46; conc. Compound 13.68 µM): 18.7%; Fraction Helix fH (Exon1 Q46; conc. Compound 37.77 µM): 18.2%
Cc1[nH]c2ccc(C(=O)NCCN3CCCC3)cc2c1C [Compound 29, 2,3-Dimethyl-N-(2-(pyrrolidin-1-yl)ethyl)-1H-indole-5-carboxamide] | 51 | 
CC(C)N(CCNC(=O)c1ccc2[nH]ccc2c1)C(C)C [Compound 43] | 65 | 

The next lines start with results.

remaining activity at 10 µM (mHTT; STHdh 111/111) [%] | SMILES | other results
43 | O=C(NCCN1CCCCC1)c1ccc2[nH]c3c(c2c1)CCCC3 [Compound 16] | 
56 | CN1CCN(CCNC(=O)c2ccc3[nH]c4c(c3c2)CCCC4)CC1 [Compound 36] | 
40 | CN1CCN(CCNC(=O)c2ccc3[nH]c4c(c3c2)CCC4)CC1 [Compound 10] | 
42 | CCc1c(C)[nH]c2ccc(C(=O)NCCN3CCN(C)CC3)cc12 [Compound 15] | 
53 | CCc1c(C)[nH]c2ccc(C(=O)NCCN3CCOCC3)cc12 [Compound 32] | 
57 | CCc1[nH]c2ccc(C(=O)NCCN(CC)CC)cc2c1C [Compound 38] | 
47 | CCc1[nH]c2ccc(C(=O)NCCN3CCCCC3)cc2c1C [Compound 23] | 
55 | CCc1c(C)[nH]c2ccc(C(=O)NCCN3CCC3)cc12 [Compound 33] | 
40 | CCc1[nH]c2ccc(C(=O)NCCN3CCCC3)cc2c1C [Compound 11] | 
56 | CCc1[nH]c2ccc(C(=O)NCCN(C)C)cc2c1C [Compound 37] | 
38 | O=C(NCCN1CCOCC1)c1ccc2[nH]c3c(c2c1)CCC3 [Compound 8] | 
41 | O=C(NCCN1CCCC1)c1ccc2[nH]c3c(c2c1)CCCC3 [Compound 13] | 
51 | CCc1[nH]c2ccc(C(=O)NCCN3CCOCC3)cc2c1C [Compound 30] | 
45 | O=C(NCCN1CCC1)c1ccc2[nH]c3c(c2c1)CCCC3 [Compound 20] | mHTT reduction with MG132 in comparison to without MG132 (mHTT; STHdh 111/111 striatal cells): less
65 | O=C(NCCN1CCC1)c1ccc2[nH]c3c(c2c1)CCC3 [Compound 42] | 
